According to patent US20080221253A1, “Lipophilic Properties of 2-Acrylamido-2-Methylpropanesulfonic Acid” (THE LUBRIZOL CORPORATION, priority 2004, published 2008):

Experiments:
[1] = Solubility of monomers, mixing 10% of the monomer with a variety of solvents; format: physicochemical; settings: 10% by weight in solvent
[2] = octanol/water partition, P=Coctanol/Cwater; cited from earlier work

Row | SMILES | Solubility in Butyl Acetate [1] | Solubility in Ethanol [1] | Solubility in Ethyl Acetate [1] | Solubility in Isopropanol [1] | Solubility in Styrene [1] | Solubility in Toluene [1] | Solubility in Water [1] | log P [2]
1 | C=CC(=O)NC(C)(C)CS(=O)(=O)O [Example 7, 2-acrylamido-2-methylpropanesulfonic acid] | insoluble | insoluble | insoluble | not fully soluble | insoluble | insoluble | clear | –
2 | C=CC(=O)NC(C)(C)CS(=O)(=O)O.CCCCCCCCCCCCN(C)C [Example 8, 2-acrylamido-2-methylpropanesulfonic acid/N,N-dimethyl-n-dodecylamine salt] | clear | clear | clear | clear | clear | clear | clear | –
3 | C=CC(=O)NC(C)(C)CS(=O)(=O)O.CCCCC(CC)CN [Example 9, 2-acrylamido-2-methylpropanesulfonic acid/2-ethylhexylamine salt] | trace oil | clear | clear | clear | – | – | clear | –
4 | C=CC(=O)O [acrylic acid] | – | – | – | – | – | – | – | about 0.4
5 | CCc1ccccc1 [ethylbenzene] | – | – | – | – | – | – | – | about 3.1
